Laboratory results from patent publication US20090221624A1, “4-AMINOQUINOLINE COMPOUNDS FOR TREATING VIRUS-RELATED CONDITIONS” (priority 2005, published 2009).

How the values were obtained:
RSV minigenome = assay: RSV minigenome-dependent β-galactosidase expression assay (RSV β-Gal); type: cell-based, respiratory syncytial virus; conditions: for EC50 / inhibition at 25 µM: human respiratory syncytial virus; for EC50: Secondary Data, RSV, read-out: RSV EC50; for inhibition at 25 µM: primary screening, 25 μM final concentration, 24 hours, percent inhibition of viral replication, read-out: RSV Inh; for RSV TI: therapeutic index CC50/EC50, RSV
DNG (D2-hRuPac cells) = assay: DNG antiviral activity, D2-hRuPac cells, Renilla luciferase; type: cell-based, Dengue fever virus; conditions: Dengue virus, secondary screening
EBOV minigenome = assay: microbe, parasite or virus in culture; type: cell-based, Ebola virus; conditions: Zaire ebolavirus; for inhibition at 25 µM: 24 h, read-out: EBOV Inh; for EC50: read-out: EBOV EC50
SINV (SR19-F-luc cells) = assay: SINV antiviral activity, SR19-F-luc cells, Firefly luciferase; type: cell-based; conditions: Sindbis virus; for inhibition at 25 µM: primary screening, 25 μM final concentration, 24 hours, percent inhibition of viral replication, read-out: SINV Inh; for EC50: secondary screening, SR19-F-luc cells
YFV (YF-hRuPac cells) = assay: microbe, parasite or virus in culture; type: cell-based, yellow fever virus; conditions: for inhibition at 25 µM / EC50: Yellow fever virus; for inhibition at 25 µM: 24 h, read-out: YFV Inh; for EC50: read-out: YFV EC50
[1] = system: HCV replicon (Clone A cells, Huh7, subgenomic hepatits C virus RNA); assay: HCV Neo screening assay (HCV replicon, NPTII ELISA); type: cell-based, hepatitis C virus; conditions: for inhibition at 25 µM / EC50: Hepatitis C virus, Huh-7; for inhibition at 25 µM: primary screening, 25 μM final concentration, 24 hours, percent inhibition of viral replication, read-out: HCV Inh; for EC50: Secondary Data, HCV; for HCV TI: therapeutic index CC50/EC50, HCV
WNV (WN-hRuPac cells) = assay: WNV antiviral activity, WN-hRuPac cells, Renilla luciferase; type: cell-based, West Nile virus; conditions: for EC50 / inhibition at 25 µM: West Nile virus; for EC50: Secondary Data, WNV, read-out: WNV EC50; for inhibition at 25 µM: primary screening, 25 μM final concentration, 24 hours, percent inhibition of viral replication, read-out: WNV Inh; for WNV TI: therapeutic index CC50/EC50, WNV

Structure (SMILES)	EC50 (RSV minigenome) [nM]	inhibition at 25 µM (RSV minigenome) [%]	RSV TI (RSV minigenome)	EC50 (DNG (D2-hRuPac cells)) [µM]	inhibition at 25 µM (EBOV minigenome) [%]	EC50 (EBOV minigenome) [µM]	inhibition at 25 µM (SINV (SR19-F-luc cells)) [%]	EC50 (SINV (SR19-F-luc cells)) [µM]	inhibition at 25 µM (YFV (YF-hRuPac cells)) [%]	EC50 (YFV (YF-hRuPac cells)) [µM]	inhibition at 25 µM [1] [%]	CC50 (in vitro; DNG CC50) [µM]	CC50 (in vitro; EBOV CC50) [µM]	CC50 (in vitro; HCV CC50) [µM]	CC50 (in vitro; RSV CC50) [µM]	CC50 (in vitro; SINV CC50) [µM]	CC50 (in vitro; WNV CC50) [µM]	CC50 (in vitro; YFV CC50) [µM]	EC50 (WNV (WN-hRuPac cells)) [µM]	inhibition at 25 µM (WNV (WN-hRuPac cells)) [%]	also measured
CCOC(=O)c1cnc2ccc(OC)cc2c1NCc1ccco1 [Compound 29]	290	96.2	76.21	7.43	86.4	8.75	-33.8	43	98.4	3.7	35.3	22.1	22.1	≥ 75	22.1	22.1	22.1	22.1	3.36	105	YFV TI (YFV (YF-hRuPac cells)): 5.97; WNV TI (WNV (WN-hRuPac cells)): 6.58
CCOC(=O)c1cnc2ccccc2c1NCc1ccco1 [Compound 30]	1450	80.3	38.18	12	71	12.6	-9.95	≥ 75	92.5	5.5	-18.1	55.4	55.4	≥ 75	55.4	55.4	55.4	55.4	4.6	93.7	YFV TI (YFV (YF-hRuPac cells)): 10.07; WNV TI (WNV (WN-hRuPac cells)): 12.04
CCOC(=O)c1cnc2ccc(OCC)cc2c1Nc1ccc(I)cc1 [Compound 32]	3500	48.3	21.43	≥ 75	31.9	75	-17.6	≥ 75	-16.9	≥ 75	-11.1	≥ 75	≥ 75	≥ 75	≥ 75	≥ 75	≥ 75	≥ 75	≥ 75	-2.69	
CCOC(=O)c1cnc2ccc(OCC)cc2c1Nc1ccccc1CC [Compound 34]	5080	77.3	12.19	≥ 75	53.8	75	34	≥ 75	58.5	23	78.6	61.9	61.9	35.6	61.9	61.9	61.9	61.9	39.1	60.4	YFV TI (YFV (YF-hRuPac cells)): 2.69; EC50 [1]: 11.4 µM; HCV TI [1]: 3.12; WNV TI (WNV (WN-hRuPac cells)): 1.58
CCOC(=O)c1cnc2c(C)cc(C)cc2c1NCc1ccco1 [Compound 35]	1040	89.9	35.77	11.1	75.2	6.64	44.9	≥ 75	98.7	3.03	67.5	37.2	37.2	53	37.2	37.2	37.2	37.2	2.52	104	YFV TI (YFV (YF-hRuPac cells)): 12.28; EC50 [1]: 8.35 µM; HCV TI [1]: 6.34; WNV TI (WNV (WN-hRuPac cells)): 14.76
